These results are taken from patent US5773424A, “Treatment of toxoplasmosis” (priority 1994, dated 1998).

Structures are written as SMILES.

Chain of T. gondii adenosine kinase (Q9TVW2 whole entry): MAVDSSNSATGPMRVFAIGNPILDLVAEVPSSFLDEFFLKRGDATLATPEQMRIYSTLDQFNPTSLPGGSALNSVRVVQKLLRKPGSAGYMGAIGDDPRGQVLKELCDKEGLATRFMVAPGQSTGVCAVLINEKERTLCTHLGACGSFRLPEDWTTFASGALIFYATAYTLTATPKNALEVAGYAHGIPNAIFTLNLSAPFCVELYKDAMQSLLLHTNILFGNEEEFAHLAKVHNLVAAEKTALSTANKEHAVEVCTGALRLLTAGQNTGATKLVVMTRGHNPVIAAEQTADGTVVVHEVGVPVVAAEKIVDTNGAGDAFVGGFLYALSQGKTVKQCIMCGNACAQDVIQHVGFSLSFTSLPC

The first assay has as its target T. gondii adenosine kinase (Toxoplasma gondii, UniProt Q9TVW2). The experiment in a line: biochemical.
Details: not given
How it is done:
Preparation of cytosol extracts. For the structure activity relationships studies, approximately 5×10^8 T. gondii were suspended in 1.2 ml of 50 mM N-2-hydroxyethylpiperazine-N'-2-ethanesulfonic acid (HEPES)-Cl (pH 8.0)/1 mM dithiothreitol and homogenized for 30 seconds at setting 10, using a Brinnmann Instruments Polytron homogenizer fitted with a PTA 7K1 probe. The homogenate was then centrifuged at approximately 116,000 g for 1 hour at 5° and the supernatant (cytosol extract) collected and used as the enzyme source. Fresh cytosol extracts were prepared for each experiment.
Adenosine kinase assay. T. gondii adenosine kinase activity was measured by following the formation of [^14 C]AMP from [^14 C]adenosine and ATP. […] Therefore, the standard reaction mixture contained 50 mM HEPES-Cl (pH 8.0), 1 mM dithiothreitol, 5 μM [8-^14 C]adenosine (45 Ci/mol), 0.5 mM ATP, 0.5 mM MgCl2, 25 μM (+)-EHNA or 100 μM (±)-EHNA,10-30 μl of cytosol extract (approximately 3-10 μg of protein), and either 0, 0.1, 0.25, 0.5 or 1.0 mM of the compound to be tested, in a final volume of 150 μl.
Reactions were started by the addition of [8-^14 C]adenosine, incubated at 37° for 10 minutes and terminated by placing the reaction tubes in a boiling water bath for 2 minutes. Precipitated proteins were removed by centrifugation in a microcentrifuge (approximately 13,000 g) for 5 minutes, and a 15 μl aliquot of the resulting supernatant was mixed with 5 μl of a solution containing 10 mM each of AMP and adenosine. This mixture was then spotted on silica gel thin layer chromatography plates which were developed with a mixture of chloroform/methanol/acetic acid (16:3:1). […] The substrate and product spots (which accounted for all of the radioactivity on the plates) were identified by UV quenching, cut out, and the radioactivity quantitated by liquid scintillation counting in 20 ml of Scintilene, using a Packard 460 scintillation counter. […] Enzyme velocity was calculated by multiplying the fraction of AMP formed from adenosine times the amount of adenosine in the assay, and dividing by the incubation time.
Determination and significance of AppKi values. AppKi values were used to determine the relative degree of binding of compounds to adenosine kinase as compared to adenosine. AppKi values were estimated from Dixon plots of the data (1/.nu. versus [I]), using a computer program with least squares fitting according to the general principles of Cleland (Cleland, W W, The statistical analysis of enzyme kinetic data. Adv. Enzymol. 29:1-32, 1967). The program was written by Dr. Sungman Cha (Brown University, Providence, R.I.) and modified to fit IBM BASIC by Dr. Fardos N. M. Naguib. […] It should be noted, however, that the type of inhibition (i.e., competitive, noncompetitive, or uncompetitive) produced by the compounds was not determined, nor were the compounds evaluated as substrates for T. gondii adenosine kinase.
Compound `OC[C@H]1O[C@@H](n2cnc3c(I)ncnc32)[C@H](O)[C@@H]1O` [Compound 14] registered a Ki of 18 ± 1 µM. The same measure, in the same setting: with `Nc1ncnc2c([C@@H]3O[C@H](CO)[C@@H](O)[C@H]3O)c[nH]c12` [Compound 60] the figure was 3400 µM; with `OC[C@H]1O[C@@H](n2cnc3c(NCc4ccco4)ncnc32)[C@H](O)[C@@H]1O` [Compound 38], 180 ± 10 µM; with `NC(=O)c1ncn([C@@H]2O[C@H](CO)[C@@H](O)[C@H]2O)c1N` [Compound 123, 5'-Aminoimidazole-4-carboxamide riboside], 2400 µM.

`Nc1ncnc2c1ncn2[C@@H]1C=C(CO)[C@@H](O)[C@H]1O` [Compound 114, Neplanocin A] gave a Ki of 37 ± 10 µM. Same read-out and setting: with `CSC[C@H]1O[C@@H](n2cnc3c(N)ncnc32)[C@H](O)[C@@H]1O` [Compound 98, 5'-Methylthio-5'-deoxyadenosine] the figure was 530 ± 230 µM; with `Nc1ccc(CNc2ncnc3c2ncn3[C@@H]2O[C@H](CO)[C@@H](O)[C@H]2O)cc1` [Compound 46], 120 ± 10 µM.

Turning to `C=CCNc1ncnc2c1ncn2[C@@H]1O[C@H](CO)[C@@H](O)[C@H]1O` [Compound 30], the Ki came to 220 ± 20 µM. The same measure, in the same setting: with `NC(=NO)c1c(Br)n([C@@H]2O[C@H](CO)[C@@H](O)[C@H]2O)c2ncnc(N)c12` [Compound 73, 8-Bromo-7-carboxyamidoxime-7-deazaadenosine] the figure was 210 ± 30 µM. Same read-out and setting: with `OC[C@H]1O[C@@H](n2cnc3c(Cl)ncnc32)[C@H](O)[C@@H]1O` [Compound 13, 6-Chloropurine riboside] the figure was 9.5 µM.

Compound `Nc1ncnc2nc[nH]c12` [Compound 115, Adenine] returned a Ki of 6500 µM. On the same count and under the same terms, next, `OC[C@H]1O[C@@H](n2cnc3c(S)ncnc32)[C@H](O)[C@@H]1O` [Compound 17]: 5300 µM; `NC(=O)c1cn([C@@H]2O[C@H](CO)[C@@H](O)[C@H]2O)c2nc[n+]([O-])c(N)c12` [Compound 80, 7-Carboxamido-7-deazaadenosine-N^1-oxide]: 780 ± 70 µM. The same measure, in the same setting: next, `Nc1ncnc2c1ncn2[C@H]1C[C@H](O)[C@@H](CO)O1` [Compound 87, 2'-Deoxyadenosine]: 4200 µM; `CC(C)=CCCC(C)=CCNc1ncnc2c1ncn2[C@@H]1O[C@H](CO)[C@@H](O)[C@H]1O` [Compound 41]: 100 ± 5 µM; `CNc1ncnc2c1c(C(N)=S)cn2[C@@H]1O[C@H](CO)[C@@H](O)[C@H]1O` [Compound 71, N^6 -Methyl-7-thiocarboxyamido-7-deazaadenosine]: 150 ± 1 µM. On the same count and under the same terms, next, `OC[C@H]1O[C@@H](n2cnc3c(Br)ncnc32)[C@H](O)[C@@H]1O` [Compound 12]: 28 ± 2 µM. Take `Nc1ncnc2c1nc(Br)n2[C@@H]1O[C@H](CO)[C@@H](O)[C@H]1O` [Compound 59]: the Ki worked out at 660 ± 70 µM. The same measure, in the same setting: next, `C/C(=C\CNc1ncnc2c1ncn2[C@@H]1O[C@H](CO)[C@@H](O)[C@H]1O)CO` [Compound 34]: 280 ± 20 µM; `CCNc1ncnc2c1ncn2[C@@H]1O[C@H](CO)[C@@H](O)[C@H]1O` [Compound 28]: 100 ± 3 µM; `OC[C@H]1O[C@@H](n2ncc3cncnc32)[C@H](O)[C@@H]1O` [Compound 75, 8-Aza-7-deazapurine riboside]: 5100 µM.

Staying with this assay, now noted: AppKi for inhibition of T. gondii adenosine kinase, 5 μM adenosine; ± range, at least two estimations.
On to `CN(C)c1ncnc2c1ncn2[C@@H]1O[C@H](CO)[C@@H](N)[C@H]1O` [Compound 119, N^6 -Dimethyl-3'-amino-3'-deoxyadenosine], for which the Ki was 540 ± 80 µM. Same read-out and setting: with `N#Cc1cn([C@@H]2O[C@H](CO)[C@@H](O)[C@H]2O)c2ncnc(N)c12` [Compound 54, 7-Cyano-7-deazaadenosine (Toyocamycin)] the figure was less than 60 µM; with `NC(=O)c1cn([C@@H]2O[C@H](CO)C[C@H]2O)c2ncnc(N)c12` [Compound 120, 7-Deaza-7-carboxamido-3'-deoxyadenosine (3'-Deoxysangivamycin)], 110 ± 20 µM; with `NC(=O)c1cn([C@@H]2O[C@H](CO)[C@@H](O)[C@H]2O)c2ncnc(N)c12` [Compound 55, 7-Carboxamido-7-deazaadenosine (Sangivamycin)], less than 60 µM. Still for that read-out and setting: with `O=[N+]([O-])c1ccc(CSc2ncnc3c2ncn3[C@@H]2O[C@H](CO)[C@@H](O)[C@H]2O)cc1` [Compound 21] the figure was 140 ± 10 µM; with `Nc1nc(F)nc2c1ncn2[C@@H]1O[C@H](CO)[C@@H](O)[C@H]1O` [Compound 8], 3000 µM.

`Nc1ncnc2c1ncn2[C@@H]1O[C@](F)(COS(N)(=O)=O)[C@@H](O)[C@H]1O` [Compound 111, 4'-Flouro-5'-O-sulfamoyladenosine (nucleocidin)]: the Ki is 850 ± 220 µM.

Consider `CC(C)=CCNc1ncnc2c1ncn2[C@@H]1O[C@H](CO)[C@@H](O)[C@H]1O` [Compound 36], for which the Ki is 51 ± 4 µM.

The assay is the same for the next values; noted with them: read-out: AppKi for inhibition of T. gondii adenosine kinase; 5 μM adenosine; ± range, at least two estimations.
As to `Nc1ncnc2c1ncn2C1O[C@H](CO)[C@H](O)[C@@H]1O` (stereo partly shown) [Compound 107, Adenine lyxoside], the Ki is 1300 µM. Still for that read-out and setting: next, `Nc1ncnc2c1ncn2[C@@H]1C[C@H](CO)[C@@H](O)[C@H]1O` (relative stereo) [Compound 112, Carbocyclic adenosine]: 170 ± 30 µM.

The assay is the same for the next values; noted with them: read-out: Inhibition of T. gondii adenosine kinase.
In the case of `CNC(=O)[C@H]1O[C@@H](n2cnc3c(N)ncnc32)[C@H](O)[C@@H]1O` [Compound 102, 5'-N-(Methyl)carboxamidoadenosine], the inhibition at 1000 µM is less than 10%. Turning to `Nc1ccnc2c1ncn2[C@@H]1O[C@H](CO)[C@@H](O)[C@H]1O` [Compound 5], the inhibition at 1000 µM was less than 10%.

Turning to `CO[C@@H]1[C@H](O)[C@@H](CO)O[C@H]1n1cnc2c(N)ncnc21` [Compound 88, 2'-O-Methyladenosine], the inhibition at 1000 µM is less than 10%.

Consider `CCCCCCC(C(C)O)n1cnc2c(N)ncnc21` (racemic) [Compound 113, (±)-EHNA], for which the inhibition at 1000 µM was less than 10%.

On to `OC[C@H]1O[C@@H](n2cnc3ccccc32)[C@H](O)[C@@H]1O` [Compound 84, Benzimidazole riboside ("1,3-dideazapurine riboside")], for which the inhibition at 1000 µM is less than 10%.

Regarding `Nc1nccc2c1ncn2[C@@H]1O[C@H](CO)[C@@H](O)[C@H]1O` [Compound 10], the inhibition at 1000 µM is less than 10%. Same read-out and setting: next, `CCNC(=O)[C@H]1O[C@@H](n2cnc3c(N)ncnc32)[C@H](O)[C@@H]1O` [Compound 103, 5'-N-(Ethyl)carboxamidoadenosine]: less than 10%.

Take `O=c1[nH]cnc(NC2C=C(CO)C(O)C2O)c1[N+](=O)[O-]` (stereo not shown) [Compound 126, 4-(3-Hydroxymethyl-4,5-dihydroxy-2-cyclopenten-1-yl)amino-1,6-dihydro-5-nitro-6-oxopyrimidine]: the inhibition at 1000 µM was less than 10%. Still for that read-out and setting: with `CC(=O)OC[C@H]1O[C@@H](n2cnc3c(N)ncnc32)[C@H](O)[C@@H]1OC(C)=O` [Compound 110, 3',5'-Di-O-acetyladenosine] the figure was less than 10%.

Still in this assay, the particulars now being: relative to adenosine.
Regarding `CO[C@@H]1[C@H](O)[C@@H](CO)O[C@H]1n1cnc2c(N)ncnc21` [Compound 88, 2'-O-Methyladenosine], the “Effect on binding to T. gondii adenosine kinase, in words” value is recorded as “abolishes”.

The same assay, now with this note: relative to reference compound adenosine.
Take `Nc1ncnc2c1ncn2[C@@H]1C=C(CO)[C@@H](O)[C@H]1O` [Compound 114, Neplanocin A]: the “Decrease in binding to T. gondii adenosine kinase” value stood at 5.3 fold. The same measure, in the same setting: with `Nc1ncnc2nc[nH]c12` [Compound 115, Adenine] the figure was 930 fold; with `Nc1ncnc2c1ncn2[C@H]1C[C@H](O)[C@@H](CO)O1` [Compound 87, 2'-Deoxyadenosine], 600 fold. The same measure, in the same setting: with `Nc1ncnc2c1ncn2C1O[C@H](CO)[C@H](O)[C@@H]1O` (stereo partly shown) [Compound 107, Adenine lyxoside] the figure was 190 fold.

Staying with this assay, now noted: relative to sangivamycin.
On to `NC(=O)c1cn([C@@H]2O[C@H](CO)C[C@H]2O)c2ncnc(N)c12` [Compound 120, 7-Deaza-7-carboxamido-3'-deoxyadenosine (3'-Deoxysangivamycin)], for which the “Reduction of binding to T. gondii adenosine kinase” value stood at 2 fold.

The inhibition is the drop in the measured response relative to a control, in per cent.
